{"source": "patent US6874277B2", "about": "“Method and composition for promoting and controlling growth of plants” (priority 1988, dated 2005)", "origin": "cited, not measured here", "test_system": "tomato variety San Jose Extra Early", "set-up": "Dry wt increase: unit not given here", "conditions": "duration 21 days", "note": "Read-outs that look alike come from different tables or passages of the source."}
{"smiles": "OC[C@H]1O[C@@](CO)(O[C@H]2O[C@H](CO)[C@@H](O)[C@H](O)[C@H]2O)[C@@H](O)[C@@H]1O", "note": "[10% sucrose solution, sucrose]", "values": [{"measurement": "Dry wt increase", "setting": "1 spray", "result": 16}, {"measurement": "Mean total dry wt", "setting": "1 spray, 0 sprays 188", "result": 204, "unit": "mg"}, {"measurement": "Dry wt increase", "setting": "2 sprays", "result": 41}, {"measurement": "Mean total dry wt", "setting": "2 sprays", "result": 229, "unit": "mg"}, {"measurement": "Dry wt increase", "setting": "3 sprays", "result": 50}, {"measurement": "Mean total dry wt", "setting": "3 sprays", "result": 238, "unit": "mg"}, {"measurement": "Dry wt increase", "setting": "5 sprays", "result": 93}, {"measurement": "Mean total dry wt", "setting": "5 sprays", "result": 281, "unit": "mg"}, {"measurement": "Dry wt increase", "setting": "10 sprays", "result": 163}, {"measurement": "Mean total dry wt", "setting": "10 sprays", "result": 352, "unit": "mg"}, {"measurement": "Dry wt increase", "setting": "20 sprays", "result": 408}, {"measurement": "Mean total dry wt", "setting": "20 sprays", "result": 596, "unit": "mg"}]}
